System: 323965-272-R-J2-PDC complex spheroid growth, % test/control
Assay: Anticancer human tumor 323965-272-R-J2-PDC patient-derived pancreatic carcinoma cell line growth inhibition [Asc]
Settings: for IC50: curve of first compound; for viability, T/C: stronger effect = lower value
Method in brief: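 Tumor cells were grown as complex spheroids with human endothelial cells (HUVEC) and human mesenchymal stem cells as stroma. Agents were tested alone and in combination, in half-log steps down from the clinical Cmax, or from 10 microM where Cmax was unknown.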

[1] = second compound 0.0316 µM, first compound 0.00316 µM
[2] = second compound 0.0316 µM, first compound 0.01 µM
[3] = second compound 0.0316 µM, first compound 0.0316 µM
[4] = second compound 0.0316 µM, first compound 0.1 µM
[5] = second compound 0.1 µM, first compound 0.00316 µM
[6] = second compound 0.1 µM, first compound 0.01 µM
[7] = second compound 0.1 µM, first compound 0.0316 µM
[8] = second compound 0.1 µM, first compound 0.1 µM
[9] = second compound 0.316 µM, first compound 0.00316 µM
[10] = second compound 0.316 µM, first compound 0.01 µM
[11] = second compound 0.316 µM, first compound 0.0316 µM
[12] = second compound 0.316 µM, first compound 0.1 µM
[13] = second compound 1 µM, first compound 0.00316 µM
[14] = second compound 1 µM, first compound 0.01 µM
[15] = second compound 1 µM, first compound 0.0316 µM
[16] = second compound 1 µM, first compound 0.1 µM
[17] = second compound 3.16 µM, first compound 0.00316 µM
[18] = second compound 3.16 µM, first compound 0.01 µM
[19] = second compound 3.16 µM, first compound 0.0316 µM
[20] = second compound 3.16 µM, first compound 0.1 µM
[21] = second compound 10 µM, first compound 0.00316 µM
[22] = second compound 10 µM, first compound 0.01 µM
[23] = second compound 10 µM, first compound 0.0316 µM
[24] = second compound 10 µM, first compound 0.1 µM
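Further: compound exposure lasted 7 days starting three days after spheroid seeding.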
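Wherever viability, T/C is given: 100% = DMSO vehicle control wells with viability set relative to vehicle.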

With Cn1ncnc1[C@H]1c2n[nH]c(=O)c3cc(F)cc(c23)N[C@@H]1c1ccc(F)cc1 + Cc1c(S(C)(=O)=O)c(-c2cc(F)cc(N3CCN(c4ccc(NS(=O)(=O)c5ccc(NC(CCN6CCC(C(=O)OCCCP(=O)(O)O)CC6)CSc6ccccc6)c(S(=O)(=O)C(F)(F)F)c5)cc4)CC3)c2)c(-c2ccc(Cl)cc2)n1C(C)C the IC50 (second compound 0.0316 µM) was over 100 nM, the IC50 (second compound 0.1 µM) was over 100 nM and the IC50 (second compound 0.316 µM) was over 100 nM. For the same molecule, the IC50 (second compound 1 µM) was over 100 nM, the IC50 (second compound 3.16 µM) was over 100 nM and the IC50 (second compound 10 µM) was over 100 nM. It also gave a viability, T/C (second compound 0.0316 µM, first compound 0.000316 µM) of 105%, a viability, T/C (second compound 0.0316 µM, first compound 0.001 µM) of 92.2% and a viability, T/C [1] of 105%. For the same molecule, the viability, T/C [2] was 96.2%, the viability, T/C [3] was 95.3% and the viability, T/C [4] was 86.4%. For the same molecule, the viability, T/C (second compound 0.1 µM, first compound 0.000316 µM) was 86.4%, the viability, T/C (second compound 0.1 µM, first compound 0.001 µM) was 102% and the viability, T/C [5] was 97.9%. The viability, T/C [6] was 104%, the viability, T/C [7] was 95.4% and the viability, T/C [8] was 92.7%. The viability, T/C (second compound 0.316 µM, first compound 0.000316 µM) was 94.8%, the viability, T/C (second compound 0.316 µM, first compound 0.001 µM) was 99.7% and the viability, T/C [9] was 100%. It also gave a viability, T/C [10] of 84.2%, a viability, T/C [11] of 96.7% and a viability, T/C [12] of 80.5%. It also gave a viability, T/C (second compound 1 µM, first compound 0.000316 µM) of 96.5%, a viability, T/C (second compound 1 µM, first compound 0.001 µM) of 89.3% and a viability, T/C [13] of 88.8%. It also gave a viability, T/C [14] of 87.2%, a viability, T/C [15] of 84.3% and a viability, T/C [16] of 66.5%. The viability, T/C (second compound 3.16 µM, first compound 0.000316 µM) was 86.6%, the viability, T/C (second compound 3.16 µM, first compound 0.001 µM) was 76.2% and the viability, T/C [17] was 80.3%. For the same molecule, the viability, T/C [18] was 75.4%, the viability, T/C [19] was 70% and the viability, T/C [20] was 64.5%. The viability, T/C (second compound 10 µM, first compound 0.000316 µM) was 81.5%, the viability, T/C (second compound 10 µM, first compound 0.001 µM) was 73.4% and the viability, T/C [21] was 71.8%. The viability, T/C [22] was 69.1%, the viability, T/C [23] was 71.1% and the viability, T/C [24] was 59.6%.
Molecule O=C(c1ccc(F)c(F)c1Nc1ccc(I)cc1F)N1CC(O)([C@@H]2CCCCN2)C1 + Cc1c(S(C)(=O)=O)c(-c2cc(F)cc(N3CCN(c4ccc(NS(=O)(=O)c5ccc(NC(CCN6CCC(C(=O)OCCCP(=O)(O)O)CC6)CSc6ccccc6)c(S(=O)(=O)C(F)(F)F)c5)cc4)CC3)c2)c(-c2ccc(Cl)cc2)n1C(C)C has an IC50 (second compound 0.0316 µM) of 139 nM, an IC50 (second compound 0.1 µM) of 133 nM and an IC50 (second compound 0.316 µM) of 81.6 nM. For the same molecule, the IC50 (second compound 1 µM) was 51.8 nM, the IC50 (second compound 3.16 µM) was 29.6 nM and the IC50 (second compound 10 µM) was 20.9 nM. For the same molecule, the viability, T/C [1] was 91%, the viability, T/C [2] was 89.6% and the viability, T/C [3] was 77.3%. It also gave a viability, T/C [4] of 54.5%, a viability, T/C (second compound 0.0316 µM, first compound 0.316 µM) of 35.2% and a viability, T/C (second compound 0.0316 µM, first compound 1 µM) of 16.4%. For the same molecule, the viability, T/C [5] was 115%, the viability, T/C [6] was 103% and the viability, T/C [7] was 76.5%. For the same molecule, the viability, T/C [8] was 59.6%, the viability, T/C (second compound 0.1 µM, first compound 0.316 µM) was 30% and the viability, T/C (second compound 0.1 µM, first compound 1 µM) was 15.1%. It also gave a viability, T/C [9] of 98.2%, a viability, T/C [10] of 98.7% and a viability, T/C [11] of 68.1%. The viability, T/C [12] was 47.4%, the viability, T/C (second compound 0.316 µM, first compound 0.316 µM) was 21.9% and the viability, T/C (second compound 0.316 µM, first compound 1 µM) was 10.4%. The viability, T/C [13] was 88.8%, the viability, T/C [14] was 70.5% and the viability, T/C [15] was 61.5%. For the same molecule, the viability, T/C [16] was 40.3%, the viability, T/C (second compound 1 µM, first compound 0.316 µM) was 16.7% and the viability, T/C (second compound 1 µM, first compound 1 µM) was 7.35%. For the same molecule, the viability, T/C [17] was 82%, the viability, T/C [18] was 63.5% and the viability, T/C [19] was 52.6%. The viability, T/C [20] was 28.2%, the viability, T/C (second compound 3.16 µM, first compound 0.316 µM) was 10.3% and the viability, T/C (second compound 3.16 µM, first compound 1 µM) was 3.52%. For the same molecule, the viability, T/C [21] was 78.6%, the viability, T/C [22] was 66.5% and the viability, T/C [23] was 39.3%. For the same molecule, the viability, T/C [24] was 22.3%, the viability, T/C (second compound 10 µM, first compound 0.316 µM) was 7.23% and the viability, T/C (second compound 10 µM, first compound 1 µM) was 3.38%.
In the case of NC(=O)C(=Cn1cnc(-c2cc(C(F)(F)F)cc(C(F)(F)F)c2)n1)c1cncnc1 + Cc1c(S(C)(=O)=O)c(-c2cc(F)cc(N3CCN(c4ccc(NS(=O)(=O)c5ccc(NC(CCN6CCC(C(=O)OCCCP(=O)(O)O)CC6)CSc6ccccc6)c(S(=O)(=O)C(F)(F)F)c5)cc4)CC3)c2)c(-c2ccc(Cl)cc2)n1C(C)C, the IC50 (second compound 0.0316 µM) is reported as over 300 nM, the IC50 (second compound 0.1 µM) is reported as over 300 nM and the IC50 (second compound 0.316 µM) is reported as over 300 nM. For the same molecule, the IC50 (second compound 1 µM) was 205 nM, the IC50 (second compound 3.16 µM) was 114 nM and the IC50 (second compound 10 µM) was 63.7 nM. For the same molecule, the viability, T/C (second compound 0.0316 µM, first compound 0.000949 µM) was 111%, the viability, T/C (second compound 0.0316 µM, first compound 0.003 µM) was 96.9% and the viability, T/C (second compound 0.0316 µM, first compound 0.00949 µM) was 115%. The viability, T/C (second compound 0.0316 µM, first compound 0.03 µM) was 89.1%, the viability, T/C (second compound 0.0316 µM, first compound 0.0949 µM) was 81.5% and the viability, T/C (second compound 0.0316 µM, first compound 0.3 µM) was 55.8%. It also gave a viability, T/C (second compound 0.1 µM, first compound 0.000949 µM) of 95.2%, a viability, T/C (second compound 0.1 µM, first compound 0.003 µM) of 92.8% and a viability, T/C (second compound 0.1 µM, first compound 0.00949 µM) of 92%. For the same molecule, the viability, T/C (second compound 0.1 µM, first compound 0.03 µM) was 94.8%, the viability, T/C (second compound 0.1 µM, first compound 0.0949 µM) was 78% and the viability, T/C (second compound 0.1 µM, first compound 0.3 µM) was 53.8%. For the same molecule, the viability, T/C (second compound 0.316 µM, first compound 0.000949 µM) was 94%, the viability, T/C (second compound 0.316 µM, first compound 0.003 µM) was 100% and the viability, T/C (second compound 0.316 µM, first compound 0.00949 µM) was 93.3%. For the same molecule, the viability, T/C (second compound 0.316 µM, first compound 0.03 µM) was 84.9%, the viability, T/C (second compound 0.316 µM, first compound 0.0949 µM) was 76.1% and the viability, T/C (second compound 0.316 µM, first compound 0.3 µM) was 49.8%. It also gave a viability, T/C (second compound 1 µM, first compound 0.000949 µM) of 91%, a viability, T/C (second compound 1 µM, first compound 0.003 µM) of 88.6% and a viability, T/C (second compound 1 µM, first compound 0.00949 µM) of 80.2%. For the same molecule, the viability, T/C (second compound 1 µM, first compound 0.03 µM) was 77.6%, the viability, T/C (second compound 1 µM, first compound 0.0949 µM) was 64.4% and the viability, T/C (second compound 1 µM, first compound 0.3 µM) was 42.6%. It also gave a viability, T/C (second compound 3.16 µM, first compound 0.000949 µM) of 79%, a viability, T/C (second compound 3.16 µM, first compound 0.003 µM) of 78.1% and a viability, T/C (second compound 3.16 µM, first compound 0.00949 µM) of 76%. The viability, T/C (second compound 3.16 µM, first compound 0.03 µM) was 63.1%, the viability, T/C (second compound 3.16 µM, first compound 0.0949 µM) was 55% and the viability, T/C (second compound 3.16 µM, first compound 0.3 µM) was 32.6%. The viability, T/C (second compound 10 µM, first compound 0.000949 µM) was 69.9%, the viability, T/C (second compound 10 µM, first compound 0.003 µM) was 68.7% and the viability, T/C (second compound 10 µM, first compound 0.00949 µM) was 63.1%. For the same molecule, the viability, T/C (second compound 10 µM, first compound 0.03 µM) was 63.6%, the viability, T/C (second compound 10 µM, first compound 0.0949 µM) was 43% and the viability, T/C (second compound 10 µM, first compound 0.3 µM) was 30.3%.

Source: PubChem BioAssay AID1963425 (Molecular Pharmacology Branch, DTP, NCI, 2024)
